Measurements taken from patent US20250230159A1, “FUSED HETEROCYCLIC COMPOUNDS AS MODULATORS OF RAS SIGNALLING” (Shenzhen Ionova Life Science Co., Ltd., priority 2022, published 2025).
Read-outs that look alike come from different tables or passages of the source.

Assays:
[1] = tested on: pERK in Hela cells; test: Phospho-ERK (p-ERK) assay in Hela cells; format: cell-based; conditions: β-actin normalized
Protocol: This Example illustrates that exemplary compounds of the present invention prevent KRas-mediated GTP nucleotide exchange mediated by SOS1 to inhibit KRas activity, thereby inhibiting the generation of the downstream effector pERK.
Hela cells (23,000/w) were seeded in a black clear flat bottom 96-well cell culture plate (Corning, #3904) and incubated at 37° C. overnight. At day 2, cells were dosed with compounds of Formula (I) with a 10 μM starting concentration and serially diluted 3× for a total of 9 concentrations. The cells were incubated for 1 hour with the compounds solubilized in DMSO at 37° C. Cells were immediately fixed by adding 100 μL of 8% formaldehyde to all wells in a fume hood and the plates were incubated for 1 hr at room temperature. The formaldehyde was discarded from the plates and washed 5 times and each time for 5 min with 200 μL of Triton Washing Solution (0.1% Triton in PBS) each time to permeabilize the cells. Cells were then blocked with 150 μL of Odyssey blocking buffer (LI-COR Biosciences #927-50010) at room temperature on a shaker. The blocking buffer was discarded and 50 μL of primary antibodies pERK (cell signaling Technology #4370; Rabbit, 1:500) and β-actin (AF5001; Mouse, 1:2000) diluted in Odyssey blocking buffer was added. The plates were incubated overnight at 4° C. on a shaker.
On day 3, the primary antibody solution was removed. Each plate was washed 5× times with 200 μL of 1×PBST (PBS+0.1% Tween 20) and incubated with 50 μL of secondary antibodies: Anti-Rabbit (LI-COR Biosciences #926-32211) and Anti-Mouse (LI-COR Biosciences #68070) at 1:1000 dilution in Odyssey blocking buffer at room temperature on a shaker for 1 hour (protected from light). The secondary antibody solution as removed and each plate was washed with PBST 5× times. Any liquid remaining was discarded and the plate was imaged using the Licor Odyssey machine according to the manufacturer's instruction, using a set focus length at 3.5 mm and both 800 nm and 700 nm filters. The 3-actin normalized scan values for each well were divided by the average of vehicle wells to get the % of p-ERK inhibition. The IC50 values were then calculated with the Graph pad Prism software. In general, p-ERK IC50 data are in line with the PPI IC50 data.

[2] = molecular target: KRAS-G12C/SOS1 interaction (Homo sapiens (Human), UniProt Q07889); test: Protein-Protein Interaction (PPI) assay, SOS1-KRAS binding assay kit (HTRF)
KRAS-G12C/SOS1 interaction, sequence (Q07889 whole entry, stated change not applied): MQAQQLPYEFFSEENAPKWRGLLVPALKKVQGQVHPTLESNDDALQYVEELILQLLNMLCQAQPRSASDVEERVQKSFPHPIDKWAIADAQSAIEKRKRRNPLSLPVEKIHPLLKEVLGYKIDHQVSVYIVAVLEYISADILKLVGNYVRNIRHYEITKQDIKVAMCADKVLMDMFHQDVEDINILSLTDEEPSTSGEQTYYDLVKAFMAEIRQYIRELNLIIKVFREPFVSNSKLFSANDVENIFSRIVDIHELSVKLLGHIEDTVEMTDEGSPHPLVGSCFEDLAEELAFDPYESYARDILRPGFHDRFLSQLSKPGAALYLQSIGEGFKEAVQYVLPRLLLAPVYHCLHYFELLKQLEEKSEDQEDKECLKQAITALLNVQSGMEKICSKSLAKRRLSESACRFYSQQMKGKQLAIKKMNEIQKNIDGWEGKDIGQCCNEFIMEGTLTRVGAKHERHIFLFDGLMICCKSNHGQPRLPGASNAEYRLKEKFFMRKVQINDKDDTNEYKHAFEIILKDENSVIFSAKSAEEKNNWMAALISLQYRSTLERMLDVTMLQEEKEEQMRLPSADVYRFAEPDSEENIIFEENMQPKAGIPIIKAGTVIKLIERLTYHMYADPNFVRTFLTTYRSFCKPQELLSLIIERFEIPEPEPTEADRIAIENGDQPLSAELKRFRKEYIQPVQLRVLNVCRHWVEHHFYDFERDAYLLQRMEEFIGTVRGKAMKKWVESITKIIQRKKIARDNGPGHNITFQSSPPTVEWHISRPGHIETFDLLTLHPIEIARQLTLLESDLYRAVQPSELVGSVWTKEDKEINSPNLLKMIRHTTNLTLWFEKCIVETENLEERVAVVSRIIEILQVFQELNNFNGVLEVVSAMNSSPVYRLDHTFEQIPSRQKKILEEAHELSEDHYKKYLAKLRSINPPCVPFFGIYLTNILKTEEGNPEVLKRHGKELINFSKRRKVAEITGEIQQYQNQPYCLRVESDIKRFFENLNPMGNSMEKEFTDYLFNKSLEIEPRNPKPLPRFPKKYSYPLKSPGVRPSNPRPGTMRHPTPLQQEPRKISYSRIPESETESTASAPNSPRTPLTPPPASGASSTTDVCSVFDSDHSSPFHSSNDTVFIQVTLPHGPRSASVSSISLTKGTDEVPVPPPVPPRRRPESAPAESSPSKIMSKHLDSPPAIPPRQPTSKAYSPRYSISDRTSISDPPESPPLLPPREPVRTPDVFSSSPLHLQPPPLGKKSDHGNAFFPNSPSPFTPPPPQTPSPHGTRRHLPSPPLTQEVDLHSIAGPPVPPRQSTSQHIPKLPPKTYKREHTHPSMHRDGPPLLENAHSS

[3] = Homo sapiens, Table 1, 1 hour with compound

Row | IC50 ([2]; read-out: PPI Assay IC50) | Structure (SMILES) | IC50 [1, 3] | further results
1 | < 100 nM | CC(=O)N1CCC(F)(c2cc3c(N[C@H](C)c4cccc(C(F)F)c4F)ncnc3n3nnnc23)CC1 [Example 117] | < 100 nM | –
2 | < 100 nM | Cc1nc(N[C@H](C)c2cc(N)cc(C(F)(F)F)c2)c2cc(N3CCOCC3)c3nnnn3c2n1 [Example 95] | < 100 nM | –
3 | < 100 nM | CC(=O)N1CC=C(c2cc3c(N[C@H](C)c4cccc(C(F)F)c4F)ncnc3n3nnnc23)CC1 [Example 106] | < 100 nM | –
4 | < 100 nM | Cc1nc(N[C@H](C)c2cccc(C(F)F)c2F)c2cc(C3CCN(CCS(C)(=O)=O)CC3)c3nncn3c2n1 [Example 71] | > 100 nM | –
5 | < 100 nM | C[C@@H](Nc1ncnc2c1cc(N1CCOC[C@@H]1C)c1nncn12)c1cc(N)cc(C(F)(F)F)c1 [Example 159] | > 100 nM | –
6 | < 100 nM | Cc1nc(N[C@H](C)c2cccc(C(F)F)c2F)c2cc(C(=O)N3CCN(C)CC3)c3ncnn3c2n1 [Example 19] | > 100 nM | –
7 | < 100 nM | Cc1nc(N[C@H](C)c2cccc(C(F)F)c2F)c2cc(N3CCOCC3=O)c3nncn3c2n1 [Example 163] | < 100 nM | –
8 | < 100 nM | CC(=O)N1CCC(c2cc3c(N[C@H](C)c4cccc(C(F)F)c4F)nc(C)nc3n3cnnc23)C1 (stereo partly shown) [Example 137] | > 100 nM | –
9 | < 100 nM | CC(=O)N1CCC(O)(c2cc3c(N[C@H](C)c4cccc(C(F)F)c4F)ncnc3n3c(C(F)(F)F)nnc23)CC1 [Example 135, (R)-1-(4-(4-((1-(3-(difluoromethyl)-2-fluorophenyl)ethyl)amino)-9-(trifluoromethyl)-[1,2,4]triazolo[4′,3′:1,6]pyrido[2,3-d]pyrimidin-6-yl)-4-hydroxypiperidin-1-yl)ethan-1-one] | > 100 nM | –
10 | < 100 nM | Cc1nc(N[C@H](C)c2cccc(C(F)F)c2F)c2cc(C(=O)N3[C@@H](C)COC[C@@H]3C)c3ncnn3c2n1 [Example 13] | < 100 nM | –
11 | < 100 nM | Cc1nc2c(C3(C#N)CC3)cc3c(N[C@H](C)c4cccc(C(F)F)c4F)ncnc3n2n1 [Example 170, (R)-1-(6-((1-(3-(difluoromethyl)-2-fluorophenyl)ethyl)amino)-2-methyl-[1,2,4]triazolo[1′,5′:1,6]pyrido[2,3-d]pyrimidin-4-yl)cyclopropane-1-carbonitrile] | < 100 nM | –
12 | < 100 nM | COC1(c2cc3c(N[C@H](C)c4cc(N)cc(C(F)(F)F)c4)ncnc3n3cnnc23)CCN(C(C)=O)CC1 [Example 122] | < 100 nM | –
13 | < 100 nM | CC(=O)N1CC=C(c2cc3c(N[C@H](C)c4cccc(C(F)F)c4F)ncnc3n3cnnc23)CC1 [Example 101] | < 100 nM | –
14 | – | Cc1nc(N[C@H](C)c2cccc(C(F)F)c2F)c2cc(C(=O)N3CC4(COC4)C3)c3nnnn3c2n1 [Example 62] | – | IC50 ([1]; Table 1, 1 hour with compound): > 100 nM; IC50 ([2]; Table 1 (PPI IC50 < 100 nM), Tag1-SOS1 / Tag2-KRAS-G12C, HTRF, 10 μM GTP, read-out: PPI Assay IC50): < 100 nM
15 | < 100 nM | COCC(=O)N1CCC(c2cc3c(N[C@H](C)c4cccc(C(F)F)c4F)ncnc3n3nnnc23)CC1 [Example 148] | > 100 nM | –
16 | < 100 nM | Cc1nc(N[C@H](C)c2cccc(C(F)F)c2F)c2cc(C(=O)N(C)C)c3nncn3c2n1 [Example 50, (R)-4-((1-(3-(difluoromethyl)-2-fluorophenyl)ethyl)amino)-N,N,2-trimethyl-[1,2,4]triazolo[4′,3′:1,6]pyrido[2,3-d]pyrimidine-6-carboxamide] | > 100 nM | –
17 | < 100 nM | CC(=O)N1CCC(C)(c2cc3c(N[C@H](C)c4cccc(C(F)F)c4F)ncnc3n3nnnc23)CC1 [Example 132] | < 100 nM | –
18 | < 100 nM | Cc1nc(N[C@H](C)c2cccc(C(F)F)c2F)c2cc(C(=O)N3CCN(C4COC4)CC3)c3ncnn3c2n1 [Example 24] | > 100 nM | –
19 | < 100 nM | COC1(c2cc3c(N[C@H](C)c4cccc(C(F)F)c4F)ncnc3n3cnnc23)CCS(=O)(=O)CC1 [Example 121] | < 100 nM | –

Row | IC50 ([2]; read-out: PPI Assay IC50) | Structure (SMILES) | IC50 [1, 3] | further results
20 | < 100 nM | C[C@@H](Nc1ncnc2c1cc(N1CCS(=O)(=O)CC1)c1nnnn12)c1cccc(C(F)F)c1F [Example 96] | > 100 nM | –
21 | < 100 nM | CC(=O)N1CCC(c2cc3c(N[C@H](C)c4cccc(C(F)F)c4F)nc(C)nc3n3cnnc23)CC1 [Example 67, (R)-1-(4-(4-((1-(3-(difluoromethyl)-2-fluorophenyl)ethyl)amino)-2-methyl-[1,2,4]triazolo[4′,3′:1,6]pyrido[2,3-d]pyrimidin-6-yl)piperidin-1-yl)ethan-1-one] | > 100 nM | –
22 | < 100 nM | Cc1nc2c(N3CC4(COC4)C3)cc3c(N[C@H](C)c4cccc(C(F)F)c4F)ncnc3n2n1 [Example 174] | < 100 nM | –
23 | < 100 nM | C[C@@H](Nc1ncnc2c1cc(C1(C)CCOCC1)c1nncn12)c1cc(N)cc(C(F)(F)F)c1 [Example 130] | > 100 nM | –
24 | < 100 nM | CC(=O)N1CCC(O)(c2cc3c(N[C@H](C)c4cccc(C(F)F)c4F)ncnc3n3cnnc23)CC1 [Example 108] | < 100 nM | –
25 | < 100 nM | C[C@@H](Nc1ncnc2c1cc(N1CCOC1=O)c1nncn12)c1cccc(C(F)F)c1F [Example 167] | < 100 nM | –
26 | < 100 nM | Cc1nc(N[C@H](C)c2cccc(C(F)(F)F)c2C)c2cc(C(=O)N3CC4(COC4)C3)c3ncnn3c2n1 [Example 38] | > 100 nM | –
27 | < 100 nM | Cc1nc(N[C@H](C)c2cccc(C(F)F)c2F)c2cc(C3(C(F)F)CC3)c3nc(C)nn3c2n1 [Example 171] | < 100 nM | –
28 | < 100 nM | Cc1nc(N[C@H](C)c2cccc(C(F)F)c2F)c2cc(C(=O)N3CCS(=O)(=O)CC3)c3ncnn3c2n1 [Example 18] | > 100 nM | –
29 | < 100 nM | CC(=O)N1CC=C(c2cc3c(N[C@H](C)c4cccc(C(F)F)c4F)nc(C)nc3n3cnnc23)CC1 [Example 100, (R)-1-(4-(4-((1-(3-(difluoromethyl)-2-fluorophenyl)ethyl)amino)-2-methyl-[1,2,4]triazolo[4′,3′:1,6]pyrido[2,3-d]pyrimidin-6-yl)-3,6-dihydropyridin-1(2H)-yl)ethan-1-one] | > 100 nM | –
30 | < 100 nM | Cc1nc2c(C3(C(F)(F)F)CC3)cc3c(N[C@H](C)c4cccc(C(F)F)c4F)ncnc3n2n1 [Example 169, (R)—N-(1-(3-(difluoromethyl)-2-fluorophenyl)ethyl)-2-methyl-4-(1-(trifluoromethyl)cyclopropyl)-[1,2,4]triazolo[1′,5′:1,6]pyrido[2,3-d]pyrimidin-6-amine] | < 100 nM | –
31 | < 100 nM | Cc1nc(N[C@H](C)c2cccc(C(F)F)c2F)c2cc(C3CCN(C(=O)N(C)C)CC3)c3nncn3c2n1 [Example 69] | > 100 nM | –
32 | < 100 nM | COCCN1CCN(C(=O)c2cc3c(N[C@H](C)c4cc(N)cc(C(F)(F)F)c4)nc(C)nc3n3ncnc23)CC1 [Example 4] | > 100 nM | –
33 | < 100 nM | CC(=O)N1CCC(C)(c2cc3c(N[C@H](C)c4cccc(C(F)F)c4F)nc(C)nc3n3cnnc23)CC1 [Example 127, (R)-1-(4-(4-((1-(3-(difluoromethyl)-2-fluorophenyl)ethyl)amino)-2-methyl-[1,2,4]triazolo[4′,3′:1,6]pyrido[2,3-d]pyrimidin-6-yl)-4-methylpiperidin-1-yl)ethan-1-one] | < 100 nM | –
34 | < 100 nM | C[C@@H](Nc1ncnc2c1cc(C1(C(F)F)CC1)c1nncn12)c1cccc(C(F)F)c1F [Example 173] | < 100 nM | –
35 | < 100 nM | Cc1nc(N[C@H](C)c2cc(N)cc(C(F)(F)F)c2)c2cc(C(=O)N3CCN(C)CC3)c3ncnn3c2n1 [Example 3] | < 100 nM | –
36 | < 100 nM | Cc1nc(N[C@H](C)c2cccc(C(F)F)c2F)c2cc(C(=O)N3CCN(C(=O)N(C)C)CC3)c3ncnn3c2n1 [Example 21] | > 100 nM | –
37 | < 100 nM | COC1(c2cc3c(N[C@H](C)c4cc(N)cc(C(F)(F)F)c4)ncnc3n3cnnc23)CCOCC1 [Example 123] | < 100 nM | –
38 | – | Cc1nc(N[C@H](C)c2cccc(C(F)F)c2F)c2cc(C3=CC[S+]([O-])CC3)c3nncn3c2n1 (stereo partly drawn) [Example 149, 4-(4-(((R)-1-(3-(difluoromethyl)-2-fluorophenyl)ethyl)amino)-2-methyl-[1,2,4]triazolo[4′,3′:1,6]pyrido[2,3-d]pyrimidin-6-yl)-3,6-dihydro-2H-thiopyran 1-oxide] | – | IC50 ([1]; Homo sapiens, Table 2, 1 hour with compound): > 100 nM; IC50 [2]: > 100 nM
